Results as given in US7118895B2, “Process for producing aglycon by using diglycosidase and flavor-improved food containing the aglycon and converting agent to be used in the process” (Amano Enzyme Inc., priority 2000, dated 2006).

Test system: Crude diglycosidase
Assay: Examination of substrate concentration in the conversion into isoflavone aglycons by diglycosidase using soybean materials;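 note: percent of the isoflavone family total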
Assay type: biochemical, Penicillium multicolor IAM7153
Method: Into 20 mM acetate buffer of pH 4.0 was suspended 0.1 g, 0.25 g, 0.5 g, 1.0 g, or 1.5 g of each of various soybean materials (roasted soy flour (manufactured by Fuji Shokuryo K.K.), soymilk (manufactured by Gitoh Shokuhin K.K.), defatted soybean (manufactured by Fuji Seiyu K.K.), concentrated soybean protein (manufactured by Fuji Seiyu K.K.)). The pH of the suspension was measured and the liquid volume was adjusted to 4.5 mL while the pH was adjusted to 4.0 with 1N hydrochloric acid. An enzyme solution wherein diglycosidase activity of crude diglycosidase was adjusted to 1.88 AU/mL was added thereto in an amount of 0.5 mL, whereby the final liquid volume was 5.0 mL. Namely, the ratio of the soybean material in the reaction mixture was 2%, 5%, 10%, 20%, or 30% (w/v). The whole was reacted at 55° C. under shaking. To 5 mL of the reaction mixture was added 7 mL of ethanol after 0, 1, 3, and 6 hours of the reaction. After ultrasonication, the mixture was thoroughly mixed. It was subjected to centrifugal separation at 2,000 rpm and room temperature for 5 minutes. Then, […] of the supernatant was placed in a 1.5 mL microtube and was subjected to centrifugal separation at 15,000 rpm and 4° C. for 10 minutes. The supernatant was filtered through a filter and each sample was suitably diluted by a factor of 1 to 6 depending on the substrate concentration. Fifty μL of the diluted solution was analyzed by HLPC (Tables 27 to 38).

[1] = soymilk, substrate concentration 2%, heat treatment of enzyme no, reaction time 0 h
[2] = soymilk, substrate concentration 2%, heat treatment of enzyme no, reaction time 1 h
[3] = soymilk, substrate concentration 2%, heat treatment of enzyme no, reaction time 3 h
[4] = soymilk, substrate concentration 2%, heat treatment of enzyme no, reaction time 6 h
[5] = soymilk, substrate concentration 2%, heat treatment of enzyme yes, reaction time 6 h
[6] = soymilk, substrate concentration 5%, heat treatment of enzyme no, reaction time 0 h
[7] = soymilk, substrate concentration 5%, heat treatment of enzyme no, reaction time 1 h
[8] = soymilk, substrate concentration 5%, heat treatment of enzyme no, reaction time 3 h
[9] = soymilk, substrate concentration 5%, heat treatment of enzyme no, reaction time 6 h
[10] = soymilk, substrate concentration 5%, heat treatment of enzyme yes, reaction time 6 h
[11] = soymilk, substrate concentration 10%, heat treatment of enzyme no, reaction time 0 h
[12] = soymilk, substrate concentration 10%, heat treatment of enzyme no, reaction time 1 h
[13] = soymilk, substrate concentration 10%, heat treatment of enzyme no, reaction time 3 h
[14] = soymilk, substrate concentration 10%, heat treatment of enzyme no, reaction time 6 h
[15] = soymilk, substrate concentration 10%, heat treatment of enzyme yes, reaction time 6 h
[16] = soymilk, substrate concentration 20%, heat treatment of enzyme no, reaction time 0 h
[17] = soymilk, substrate concentration 20%, heat treatment of enzyme no, reaction time 1 h
[18] = soymilk, substrate concentration 20%, heat treatment of enzyme no, reaction time 3 h
[19] = soymilk, substrate concentration 20%, heat treatment of enzyme no, reaction time 6 h
[20] = soymilk, substrate concentration 20%, heat treatment of enzyme yes, reaction time 6 h
[21] = soymilk, substrate concentration 30%, heat treatment of enzyme no, reaction time 0 h
[22] = soymilk, substrate concentration 30%, heat treatment of enzyme no, reaction time 1 h
[23] = soymilk, substrate concentration 30%, heat treatment of enzyme no, reaction time 3 h
[24] = soymilk, substrate concentration 30%, heat treatment of enzyme no, reaction time 6 h
[25] = soymilk, substrate concentration 30%, heat treatment of enzyme yes, reaction time 6 h

CC(=O)OC[C@H]1O[C@@H](Oc2ccc3c(=O)c(-c4ccc(O)cc4)coc3c2)[C@H](O)[C@@H](O)[C@@H]1O [acetly-daidzin]
Decomposition efficiency: ratio of each glycoside/aglycon within its isoflavone family (concentrated soybean protein, substrate concentration 2%, heat treatment of enzyme no, reaction time 0 h): 44.0%
Decomposition efficiency: ratio of each glycoside/aglycon within its isoflavone family (concentrated soybean protein, substrate concentration 2%, heat treatment of enzyme no, reaction time 1 h): 17.8%
Decomposition efficiency: ratio of each glycoside/aglycon within its isoflavone family (concentrated soybean protein, substrate concentration 2%, heat treatment of enzyme no, reaction time 3 h): 5.3%
Decomposition efficiency: ratio of each glycoside/aglycon within its isoflavone family (concentrated soybean protein, substrate concentration 2%, heat treatment of enzyme no, reaction time 6 h): not detected
Decomposition efficiency: ratio of each glycoside/aglycon within its isoflavone family (concentrated soybean protein, substrate concentration 2%, heat treatment of enzyme yes, reaction time 6 h): 43.2%
Decomposition efficiency: ratio of each glycoside/aglycon within its isoflavone family (concentrated soybean protein, substrate concentration 5%, heat treatment of enzyme no, reaction time 0 h): 44.0%
Decomposition efficiency: ratio of each glycoside/aglycon within its isoflavone family (concentrated soybean protein, substrate concentration 5%, heat treatment of enzyme no, reaction time 3 h): 20.5%
Decomposition efficiency: ratio of each glycoside/aglycon within its isoflavone family (concentrated soybean protein, substrate concentration 5%, heat treatment of enzyme no, reaction time 6 h): 12.0%
Decomposition efficiency: ratio of each glycoside/aglycon within its isoflavone family (concentrated soybean protein, substrate concentration 5%, heat treatment of enzyme yes, reaction time 6 h): 43.0%
Decomposition efficiency: ratio of each glycoside/aglycon within its isoflavone family (concentrated soybean protein, substrate concentration 10%, heat treatment of enzyme no, reaction time 0 h): 44.2%
Decomposition efficiency: ratio of each glycoside/aglycon within its isoflavone family (concentrated soybean protein, substrate concentration 10%, heat treatment of enzyme no, reaction time 1 h): 39.7%
Decomposition efficiency: ratio of each glycoside/aglycon within its isoflavone family (concentrated soybean protein, substrate concentration 10%, heat treatment of enzyme no, reaction time 3 h): 32.9%
Decomposition efficiency: ratio of each glycoside/aglycon within its isoflavone family (concentrated soybean protein, substrate concentration 10%, heat treatment of enzyme no, reaction time 6 h): 26.9%
Decomposition efficiency: ratio of each glycoside/aglycon within its isoflavone family (concentrated soybean protein, substrate concentration 10%, heat treatment of enzyme yes, reaction time 6 h): 43.4%
Decomposition efficiency: ratio of each glycoside/aglycon within its isoflavone family (concentrated soybean protein, substrate concentration 20%, heat treatment of enzyme no, reaction time 0 h): 44.1%
Decomposition efficiency: ratio of each glycoside/aglycon within its isoflavone family (concentrated soybean protein, substrate concentration 20%, heat treatment of enzyme no, reaction time 3 h): 41.5%
Decomposition efficiency: ratio of each glycoside/aglycon within its isoflavone family (concentrated soybean protein, substrate concentration 20%, heat treatment of enzyme no, reaction time 6 h): 37.9%
Decomposition efficiency: ratio of each glycoside/aglycon within its isoflavone family (concentrated soybean protein, substrate concentration 20%, heat treatment of enzyme yes, reaction time 6 h): 44.0%
Decomposition efficiency: ratio of each glycoside/aglycon within its isoflavone family (concentrated soybean protein, substrate concentration 30%, heat treatment of enzyme no, reaction time 0 h): 49.2%
Decomposition efficiency: ratio of each glycoside/aglycon within its isoflavone family (concentrated soybean protein, substrate concentration 30%, heat treatment of enzyme no, reaction time 1 h): 56.6%
Decomposition efficiency: ratio of each glycoside/aglycon within its isoflavone family (concentrated soybean protein, substrate concentration 30%, heat treatment of enzyme no, reaction time 3 h): 49.9%
Decomposition efficiency: ratio of each glycoside/aglycon within its isoflavone family (concentrated soybean protein, substrate concentration 30%, heat treatment of enzyme no, reaction time 6 h): 42.8%
Decomposition efficiency: ratio of each glycoside/aglycon within its isoflavone family (concentrated soybean protein, substrate concentration 30%, heat treatment of enzyme yes, reaction time 6 h): 48.4%

CC(=O)OC[C@H]1O[C@@H](Oc2ccc3c(=O)c(-c4ccc(O)cc4)coc3c2)[C@H](O)[C@@H](O)[C@@H]1O [acetyl-daidzin]
Decomposition efficiency: ratio of each glycoside/aglycon within its isoflavone family [1]: not detected
Decomposition efficiency: ratio of each glycoside/aglycon within its isoflavone family [2]: not detected
Decomposition efficiency: ratio of each glycoside/aglycon within its isoflavone family [3]: not detected
Decomposition efficiency: ratio of each glycoside/aglycon within its isoflavone family [4]: not detected
Decomposition efficiency: ratio of each glycoside/aglycon within its isoflavone family [5]: not detected
Decomposition efficiency: ratio of each glycoside/aglycon within its isoflavone family [6]: not detected
Decomposition efficiency: ratio of each glycoside/aglycon within its isoflavone family [7]: not detected
Decomposition efficiency: ratio of each glycoside/aglycon within its isoflavone family [8]: not detected
Decomposition efficiency: ratio of each glycoside/aglycon within its isoflavone family [9]: not detected
Decomposition efficiency: ratio of each glycoside/aglycon within its isoflavone family [10]: not detected
Decomposition efficiency: ratio of each glycoside/aglycon within its isoflavone family [11]: not detected
Decomposition efficiency: ratio of each glycoside/aglycon within its isoflavone family [12]: not detected
Decomposition efficiency: ratio of each glycoside/aglycon within its isoflavone family [13]: not detected
Decomposition efficiency: ratio of each glycoside/aglycon within its isoflavone family [14]: not detected
Decomposition efficiency: ratio of each glycoside/aglycon within its isoflavone family [15]: not detected
Decomposition efficiency: ratio of each glycoside/aglycon within its isoflavone family [16]: not detected
Decomposition efficiency: ratio of each glycoside/aglycon within its isoflavone family [17]: not detected
Decomposition efficiency: ratio of each glycoside/aglycon within its isoflavone family [18]: not detected
Decomposition efficiency: ratio of each glycoside/aglycon within its isoflavone family [19]: not detected
Decomposition efficiency: ratio of each glycoside/aglycon within its isoflavone family [20]: not detected
Decomposition efficiency: ratio of each glycoside/aglycon within its isoflavone family [21]: not detected
Decomposition efficiency: ratio of each glycoside/aglycon within its isoflavone family [22]: not detected
Decomposition efficiency: ratio of each glycoside/aglycon within its isoflavone family [23]: not detected
Decomposition efficiency: ratio of each glycoside/aglycon within its isoflavone family [24]: not detected
Decomposition efficiency: ratio of each glycoside/aglycon within its isoflavone family [25]: not detected

CC(=O)OC[C@H]1O[C@@H](Oc2cc(O)c3c(=O)c(-c4ccc(O)cc4)coc3c2)[C@H](O)[C@@H](O)[C@@H]1O [acetyl-genistin]
Decomposition efficiency: ratio of each glycoside/aglycon within its isoflavone family [1]: not detected
Decomposition efficiency: ratio of each glycoside/aglycon within its isoflavone family [2]: not detected
Decomposition efficiency: ratio of each glycoside/aglycon within its isoflavone family [3]: not detected
Decomposition efficiency: ratio of each glycoside/aglycon within its isoflavone family [4]: not detected
Decomposition efficiency: ratio of each glycoside/aglycon within its isoflavone family [5]: not detected
Decomposition efficiency: ratio of each glycoside/aglycon within its isoflavone family [6]: not detected
Decomposition efficiency: ratio of each glycoside/aglycon within its isoflavone family [7]: not detected
Decomposition efficiency: ratio of each glycoside/aglycon within its isoflavone family [8]: not detected
Decomposition efficiency: ratio of each glycoside/aglycon within its isoflavone family [9]: not detected
Decomposition efficiency: ratio of each glycoside/aglycon within its isoflavone family [10]: not detected
Decomposition efficiency: ratio of each glycoside/aglycon within its isoflavone family [11]: 0.5%
Decomposition efficiency: ratio of each glycoside/aglycon within its isoflavone family [12]: not detected
Decomposition efficiency: ratio of each glycoside/aglycon within its isoflavone family [13]: not detected
Decomposition efficiency: ratio of each glycoside/aglycon within its isoflavone family [14]: not detected
Decomposition efficiency: ratio of each glycoside/aglycon within its isoflavone family [15]: 0.5%
Decomposition efficiency: ratio of each glycoside/aglycon within its isoflavone family [16]: 0.6%
Decomposition efficiency: ratio of each glycoside/aglycon within its isoflavone family [17]: not detected
Decomposition efficiency: ratio of each glycoside/aglycon within its isoflavone family [18]: not detected
Decomposition efficiency: ratio of each glycoside/aglycon within its isoflavone family [19]: not detected
Decomposition efficiency: ratio of each glycoside/aglycon within its isoflavone family [20]: 0.6%
Decomposition efficiency: ratio of each glycoside/aglycon within its isoflavone family [21]: 0.6%
Decomposition efficiency: ratio of each glycoside/aglycon within its isoflavone family [22]: not detected
Decomposition efficiency: ratio of each glycoside/aglycon within its isoflavone family [23]: not detected
Decomposition efficiency: ratio of each glycoside/aglycon within its isoflavone family [24]: not detected
Decomposition efficiency: ratio of each glycoside/aglycon within its isoflavone family [25]: 0.6%
